Assay results: US20190255114A1, “STORAGE OF PLATELETS” (University of Kentucky Research Foundation, priority 2018, published 2019)

Tests used:
washed GFP platelets = assay: Clearance of transfused cold-stored washed GFP platelets (flow cytometry); type: in vivo, C57BL/6J mice; details: 50 uM EGTA, stored at 4° C. for 24 hours, retro-orbital injection
Procedure: To monitor the life span of transfused platelets in circulation, a method that can easily differentiate the transfused platelets from recipient platelets was developed. Platelets from C57BL/6-Tg(CAGEGFP)1 Osb/J mice (GFP mice) (From Jackson Laboratories) are GFP positive that are distinct from the recipient platelets by flow cytometry assay (FIG. 6A). C57BL/6J mice were injected retro-orbitally with washed GFP platelets (2.5×10^8 per mouse). 60 μl blood was collected from mice and PRP was analyzed by flow cytometry. Quantitative results were expressed as percentage of survived transfused platelets (GFP positive cells at 5 min after transfusion was set to 100%; mean±SD; n=5). […]
C57BL/6J mice were injected retro-orbitally with fresh washed GFP platelets or GFP platelets stored at 4° C. for 24 hours (2.5×10^8 per mouse) with or without 1 mM RGDS. Blood was collected from mice and platelets were analyzed by flow cytometry. Quantitative results were expressed as percentage of survived transfused platelets (GFP positive cells of transfused fresh platelets at 5 min after transfusion was set to 100%, n=4). […]
Blood was collected from mice and platelets were analyzed by flow cytometry. Quantitative results were expressed as percentage of survived transfused platelets (GFP positive cells of transfused fresh platelets at 5 min after transfusion was set to 100%, n=4). […]

[1] = test system: washed platelets from C57BL/6 mice; assay: Cold storage of washed mouse platelets: aggregation and single platelet counts; type: cell-based; details: presence of EGTA, 4° C. for various time
Procedure: To investigate the mechanism of the rapid clearance after cold storage, washed platelets from C57BL/6 mice were suspended in Ca^++ free Tyrode's solution (12 mM NaHCO3, 138 mM NaCl, 5.5 mM glucose, 2.9 mM KCl, 2 mM MgCl2, 0.42 mM NaH2PO4, 10 mM HEPES, pH 7.4). and stored at RT or 4° C. Washed platelets from C57BL/6 mice were stored at RT or 4° C. for 24 hours. After storage, platelets were incubated with Oregon Green-labeled fibrinogen at 22° C. for 30 min. Fibrinogen binding to platelets was analyzed by flow cytometry. […] To confirm this observation, single platelet count was measured using a HEMAVET HV950FS multispecies hematology analyzer. Indeed, platelet counts were reduced dramatically after platelets were stored at 4° C. for over 24 hours (FIG. 1B).
To determine the molecular mechanism by which cold induces platelet activation, washed platelets prepared from C57BL/6 mice were stored at RT, cold, or cold with O-sialoglycoprotein endopeptidase (OSGE). […] GPIbα-dependent platelet activation is one of the major mechanisms leading to rapid clearance of cold-stored platelets.
If cold-induced aggregation is due to integrin activation, integrin inhibitors should be able to inhibit this process. Washed platelets from C57BL/6 mice, suspended in Ca^++ free Tyrode's solution, were added with 1 mM RGDS and stored at 4° C. for 24 hours. […]

[2] = test system: PRP prepared from healthy donors; assay: Cold storage of human PRP: platelet counts; type: cell-based; details: human PRP (ACD anticoagulant), various time points
Procedure: Platelet counts were monitored at various time points. […] Fibrinogen binding to platelets increased after cold storage (FIG. 14B). […] The amount of serotonin secreted in the supernatant was then measured.

PRP from C57BL/6 mice = assay: Cold storage of mouse PRP: aggregation and platelet counts; type: cell-based; details: PRP with EGTA
Source text: This conclusion is drawn based on the experiments using washed platelets. Although a small portion of platelet products uses platelet additive solution (PAS), most platelet products used for transfusion are in plasma. Therefore, whether PRP has a similar phenotype as observed in washed platelets was examined.

[3] = test system: washed platelets from C57BL/6J mice; assay: Platelet adhesion and spreading on fibrinogen; type: cell-based; details: EGTA 100 μM
Procedure: Platelets were then added with buffer or 1 mM CaCl2). Washed platelets suspended in Tyrode's solution with 1 mM CaCl2 were used as a control. Platelets were then added to polystyrene dishes coated with 50 μg/mL of fibrinogen and incubated at 37° C. for 60 minutes and labeled with Rhodamine-Phalloidin and photographed using a fluorescence microscope. […] This conclusion was further confirmed by a fibrinogen binding assay.

[4] = test system: cold-stored PRP from C57BL/6-Tg(CAGEGFP)1 Osb/J; assay: Clearance of transfused cold-stored GFP platelets in PRP; type: in vivo, C57BL/6J mice; details: inclusion of EGTA, retro-orbital injection
Procedure: C57BL/6J mice were injected retro-orbitally with fresh or cold-stored PRP (2.5×10^8 per mouse) from C57BL/6-Tg(CAGEGFP)1 Osb/J. Blood was collected from the recipients and platelets were analyzed by flow cytometry, n=4). Rapid clearance of cold-stored platelets in PRP is less severe than washed platelets.

[5] = test system: washed platelets from C57BL/6J mice; assay: Thrombin-induced platelet aggregation; type: cell-based
Procedure: Platelets were then added with buffer or 1 mM CaCl2). Washed platelets suspended in Tyrode's solution with 1 mM CaCl2 were used as a control. Platelet aggregation was induced by addition of thrombin (0.025 U/ml).

αIIbβ3 = molecular target: T1, αIIbβ3 (Mus musculus, UniProt O54890+Q9QUM0); assay: Thrombin-induced fibrinogen binding to platelets (integrin ligand binding function); type: cell-based, C57BL/6J mice; details: 100 μM EGTA
T1 construct: Washed platelets from C57BL/6J mice suspended in Tyrode's solution; endogenous in cells; host or cells: washed platelets from C57BL/6J mice
T1 sequence (Q9QUM0 32-1033): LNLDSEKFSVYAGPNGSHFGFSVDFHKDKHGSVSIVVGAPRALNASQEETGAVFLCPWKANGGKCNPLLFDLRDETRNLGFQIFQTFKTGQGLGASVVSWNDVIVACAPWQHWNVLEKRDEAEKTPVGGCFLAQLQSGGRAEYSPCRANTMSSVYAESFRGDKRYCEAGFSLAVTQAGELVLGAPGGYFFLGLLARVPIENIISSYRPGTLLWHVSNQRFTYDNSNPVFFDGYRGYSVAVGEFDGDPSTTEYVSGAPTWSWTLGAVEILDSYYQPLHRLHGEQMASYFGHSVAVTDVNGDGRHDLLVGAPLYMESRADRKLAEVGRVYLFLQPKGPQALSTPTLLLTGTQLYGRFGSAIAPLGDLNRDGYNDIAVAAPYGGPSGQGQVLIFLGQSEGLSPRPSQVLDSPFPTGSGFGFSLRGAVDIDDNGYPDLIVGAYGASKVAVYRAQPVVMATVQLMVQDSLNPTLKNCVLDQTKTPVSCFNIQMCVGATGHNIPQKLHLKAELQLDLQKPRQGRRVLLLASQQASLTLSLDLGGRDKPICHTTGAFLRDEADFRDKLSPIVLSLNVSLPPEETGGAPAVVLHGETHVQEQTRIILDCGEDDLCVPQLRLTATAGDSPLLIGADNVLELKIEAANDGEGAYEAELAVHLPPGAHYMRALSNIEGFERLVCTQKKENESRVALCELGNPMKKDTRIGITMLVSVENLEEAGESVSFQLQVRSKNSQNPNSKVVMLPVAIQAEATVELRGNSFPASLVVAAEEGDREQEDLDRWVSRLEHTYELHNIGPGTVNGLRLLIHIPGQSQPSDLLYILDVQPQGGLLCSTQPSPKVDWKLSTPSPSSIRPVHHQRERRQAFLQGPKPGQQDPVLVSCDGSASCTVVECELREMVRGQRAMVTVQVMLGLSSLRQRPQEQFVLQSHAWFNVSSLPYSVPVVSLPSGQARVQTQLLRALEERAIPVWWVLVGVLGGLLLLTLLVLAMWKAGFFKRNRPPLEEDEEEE
T1 sequence (O54890 26-787): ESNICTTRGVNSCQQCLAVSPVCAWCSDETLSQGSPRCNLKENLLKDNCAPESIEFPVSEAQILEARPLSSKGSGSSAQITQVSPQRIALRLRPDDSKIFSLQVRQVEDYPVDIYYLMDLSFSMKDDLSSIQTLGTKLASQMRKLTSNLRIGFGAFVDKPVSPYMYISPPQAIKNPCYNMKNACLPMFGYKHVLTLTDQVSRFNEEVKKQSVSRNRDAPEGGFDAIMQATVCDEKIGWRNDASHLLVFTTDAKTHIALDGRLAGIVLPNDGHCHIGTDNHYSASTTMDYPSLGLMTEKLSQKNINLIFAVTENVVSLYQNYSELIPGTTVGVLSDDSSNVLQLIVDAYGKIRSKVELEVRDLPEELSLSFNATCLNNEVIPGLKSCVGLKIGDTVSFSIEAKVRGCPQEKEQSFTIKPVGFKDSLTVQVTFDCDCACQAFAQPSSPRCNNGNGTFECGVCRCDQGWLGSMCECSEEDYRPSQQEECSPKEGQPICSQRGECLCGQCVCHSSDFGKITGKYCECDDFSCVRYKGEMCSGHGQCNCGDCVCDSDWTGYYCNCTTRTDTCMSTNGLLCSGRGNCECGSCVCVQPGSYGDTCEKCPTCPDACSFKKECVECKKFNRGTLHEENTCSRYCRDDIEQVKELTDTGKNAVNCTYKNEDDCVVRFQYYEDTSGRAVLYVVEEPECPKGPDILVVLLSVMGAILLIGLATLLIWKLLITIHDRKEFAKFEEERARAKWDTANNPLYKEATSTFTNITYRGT
Procedure: Platelets were then added with buffer or 1 mM CaCl2). Washed platelets suspended in Tyrode's solution with 1 mM CaCl2 were used as a control. Platelets were incubated with Oregon Green-labeled fibrinogen and thrombin (0.1 U/ml) at 22° C. for 30 min. Quantitative results were expressed as fibrinogen binding indices (geomean of fluorescence intensity of stimulated platelets/geomean of fluorescence intensity of unstimulated platelets; n=3).

For `O=C(O)CN(CCOCCOCCN(CC(=O)O)CC(=O)O)CC(=O)O` [EGTA, ethylene glycol-bis(β-aminoethyl ether)-N,N,N′,N′-tetraacetic acid], the “platelets that stayed in circulation for more than 2 hours” value (washed GFP platelets) was “About 75%”, the “rapid clearance of cold-stored platelets” value (washed GFP platelets) was “significantly inhibited rapid clearance” and the cold-induced platelet aggregation [1] was “completely inhibited cold-induced platelet aggregation”. The “reduction in platelet counts” value [1] was “completely inhibited”, the “decrease of platelet counts after storage at 4° C.” value [2] was “inhibited” and the “reduction in platelet counts by cold storage” value (PRP from C57BL/6 mice; 4° C. for various time) was “effectively inhibited reduction in platelet counts”. For the same compound, the “platelet aggregation in PRP” value (PRP from C57BL/6 mice; cold storage) was “inhibited platelet aggregation”, the “platelet adhesion and spreading on fibrinogen” value ([3]; 50 μg/mL fibrinogen, 37° C. for 60 minutes) was “inhibited platelet adhesion and spreading on fibrinogen” and the “reversal of the inhibition of adhesion and spreading” value ([3]; then 1 mM CaCl2) was “completely reversed”. For the same compound, the “quick clearance of cold-stored platelets in PRP” value [4] was “significantly reduced quick clearance”, the “platelet aggregation induced by thrombin” value ([5]; EGTA 100 μM at RT, thrombin 0.025 U/ml) was “inhibited platelet aggregation” and the “reversibility of the inhibition of platelet aggregation” value ([5]; EGTA 100 μM, then 1 mM CaCl2) was “reversible”. For the same compound, the “reversal of the inhibition of fibrinogen binding” value (αIIbβ3; then 1 mM CaCl2) was “reversed” and the “thrombin-induced fibrinogen binding to platelets” value (αIIbβ3; thrombin 0.1 U/ml, 22° C. for 30 min) was “completely inhibited”.
